Reference: patent US11998539B2, “Substituted aminoquinolones as DGKalpha inhibitors for immune activation” (Bayer Aktiengesellschaft, priority 2019, dated 2024)

Target: DGKα (Homo sapiens (Human), UniProt P23743)
Assay: Human DGKα kinase activity inhibition assay (ADP-Glo)
Assay type: biochemical
Conditions: recombinant full-length human DGKα, 55 μM ATP, 7 μM 1,2-dioleoyl-sn-glycerol, read-out: IC50 values of examples in in vitro human DGKa kinase activity inhibition assays
Procedure, shortened: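 Activity was measured as ADP production, detected by luciferase luminescence after removal of unused ATP. The enzyme was baculovirus-expressed full-length human DGKα with a C-terminal FLAG tag. The substrate was 1,2-dioleoyl-sn-glycerol in detergent micelles, and compounds came from 100× DMSO solutions.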

Chain of DGKα (P23743 other isoform, or with tags, fused parts or gaps): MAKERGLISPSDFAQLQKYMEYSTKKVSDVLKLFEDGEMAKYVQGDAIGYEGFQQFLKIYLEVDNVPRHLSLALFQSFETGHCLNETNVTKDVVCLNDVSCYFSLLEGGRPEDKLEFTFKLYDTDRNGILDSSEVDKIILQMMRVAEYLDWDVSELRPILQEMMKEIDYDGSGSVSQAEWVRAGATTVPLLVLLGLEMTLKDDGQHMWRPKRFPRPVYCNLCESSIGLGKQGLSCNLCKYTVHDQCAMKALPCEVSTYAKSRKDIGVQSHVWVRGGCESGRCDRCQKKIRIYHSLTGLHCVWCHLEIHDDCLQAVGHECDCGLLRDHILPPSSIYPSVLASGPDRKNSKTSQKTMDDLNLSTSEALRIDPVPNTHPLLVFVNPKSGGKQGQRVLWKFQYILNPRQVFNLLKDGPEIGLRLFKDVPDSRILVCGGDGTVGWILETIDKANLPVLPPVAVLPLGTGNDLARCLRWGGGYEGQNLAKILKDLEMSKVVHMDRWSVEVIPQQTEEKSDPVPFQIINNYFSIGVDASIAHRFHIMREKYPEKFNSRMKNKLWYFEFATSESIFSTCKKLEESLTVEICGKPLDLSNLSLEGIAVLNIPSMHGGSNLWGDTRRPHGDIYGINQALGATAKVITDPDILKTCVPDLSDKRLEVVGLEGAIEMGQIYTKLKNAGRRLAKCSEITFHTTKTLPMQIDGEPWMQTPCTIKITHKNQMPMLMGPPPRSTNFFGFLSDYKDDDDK

Compound: Cc1cccc(-n2ccc(C3CCN(c4c(C(N)=O)c(=O)n(C)c5ccccc45)CC3)n2)c1 [Example 472, 1-methyl-4-{4-[1-(3-methylphenyl)-1H-pyrazol-3-yl]piperidin-1-yl}-2-oxo-1,2-dihydroquinoline-3-carboxamide]
- IC50: 6.7 nM

Compound: Cn1c(=O)c(C#N)c(N2CCC(c3cnccn3)CC2)c2ccccc21 [Example 150, 1-methyl-2-oxo-4-[4-(pyrazin-2-yl)piperidin-1-yl]-1,2-dihydroquinoline-3-carbonitrile]
- IC50: 1530 nM

Compound: Cc1nc2cc(C3CCN(c4c(C#N)c(=O)n(C)c5ccccc45)CC3)ccc2s1 [Example 346, 1-methyl-4-[4-(2-methyl-1,3-benzothiazol-5-yl)piperidin-1-yl]-2-oxo-1,2-dihydroquinoline-3-carbonitrile]
- IC50: 28 nM

Compound: Cn1c(=O)c(C#N)c(N2CCC(c3nc4cc(F)ccc4o3)CC2)c2ccccc21 [Example 6, 4-[4-(5-fluoro-1,3-benzoxazol-2-yl)piperidin-1-yl]-1-methyl-2-oxo-1,2-dihydroquinoline-3-carbonitrile]
- IC50: 4.3 nM

Compound: Cn1c(=O)c(C(N)=O)c(N2CCC(c3nc4ccccc4s3)CC2)c2ccccc21 [Example 113, 4-[4-(1,3-benzothiazol-2-yl)piperidin-1-yl]-1-methyl-2-oxo-1,2-dihydroquinoline-3-carboxamide]
- IC50: 3.5 nM

Compound: COc1ccc(C2CCN(c3c(C(N)=O)c(=O)n(C)c4cc(C5COC5)ccc34)CC2)cc1 [Example 115, 4-[4-(4-methoxyphenyl)piperidin-1-yl]-1-methyl-7-(oxetan-3-yl)-2-oxo-1,2-dihydroquinoline-3-carboxamide]
- IC50: 20 nM

Compound: Cc1ccc2oc(C3(C)CCN(c4c(C#N)c(=O)n(C)c5c(OC6COC6)cccc45)CC3)nc2c1 [Example 253, 1-methyl-4-[4-methyl-4-(5-methyl-1,3-benzoxazol-2-yl)piperidin-1-yl]-8-[(oxetan-3-yl)oxy]-2-oxo-1,2-dihydroquinoline-3-carbonitrile]
- IC50: 14 nM

Compound: COc1ccc(C2CCN(c3c(C#N)c(=O)n(C)c4ccccc34)CC2)cc1 [Example 41, 4-[4-(4-methoxyphenyl)piperidin-1-yl]-1-methyl-2-oxo-1,2-dihydroquinoline-3-carbonitrile]
- IC50: 4.9 nM

Compound: Cc1ccc2oc(C3(C)CCN(c4c(C#N)c(=O)n(C)c5ccc(OCC6(C#N)CC6)cc45)CC3)nc2c1 [Example 268, 6-[(1-cyanocyclopropyl)methoxy]-1-methyl-4-[4-methyl-4-(5-methyl-1,3-benzoxazol-2-yl)piperidin-1-yl]-2-oxo-1,2-dihydroquinoline-3-carbonitrile]
- IC50: 65 nM

Compound: CC(C)c1ccc2oc(C3(C)CCN(c4c(C(N)=O)c(=O)n(C)c5ccccc45)CC3)nc2c1 [Example 103, 1-methyl-4-{4-methyl-4-[5-(propan-2-yl)-1,3-benzoxazol-2-yl]piperidin-1-yl}-2-oxo-1,2-dihydroquinoline-3-carboxamide]
- IC50: 0.6 nM

Compound: COc1ccc(-c2noc(C3CCN(c4c(C#N)c(=O)n(C)c5ccccc45)CC3)n2)cc1 [Example 349, 4-{4-[3-(4-methoxyphenyl)-1,2,4-oxadiazol-5-yl]piperidin-1-yl}-1-methyl-2-oxo-1,2-dihydroquinoline-3-carbonitrile]
- IC50: 15 nM

Compound: Cn1c(=O)c(C#N)c(N2CCC(C)(c3nc4ccccc4o3)CC2)c2ccc(F)cc21 [Example 235, 4-[4-(1,3-benzoxazol-2-yl)-4-methylpiperidin-1-yl]-7-fluoro-1-methyl-2-oxo-1,2-dihydroquinoline-3-carbonitrile]
- IC50: 2.9 nM

Compound: Cc1ccc2oc(C3CCN(c4c(C#N)c(=O)n(C)c5cc(NC6COC6)c(C)cc45)CC3)nc2c1 [Example 549, 1,6-dimethyl-4-[4-(5-methyl-1,3-benzoxazol-2-yl)piperidin-1-yl]-7-[(oxetan-3-yl)amino]-2-oxo-1,2-dihydroquinoline-3-carbonitrile]
- IC50: 0.6 nM

Compound: Cn1c(=O)c(C#N)c(N2CCC(c3cccc(NC(=O)c4ccccc4)c3)CC2)c2ccccc21 [Example 76, N-{3-[1-(3-cyano-1-methyl-2-oxo-1,2-dihydroquinolin-4-yl)piperidin-4-yl]phenyl}benzamide]
- IC50: 50 nM

Compound: Cc1ccc2oc(C3CCN(c4c(C(N)=O)c(=O)n(C)c5cc(N(C)CCO)ccc45)CC3)nc2c1 [Example 495, 7-[(2-hydroxyethyl)(methyl)amino]-1-methyl-4-[4-(5-methyl-1,3-benzoxazol-2-yl)piperidin-1-yl]-2-oxo-1,2-dihydroquinoline-3-carboxamide]
- IC50: 1.4 nM

Compound: Cc1ccc2c(c1)c(N1CCC(C)(c3nc4cc(C(C)C)ccc4o3)CC1)c(C(N)=O)c(=O)n2C [Example 199, 1,6-dimethyl-4-{4-methyl-4-[5-(propan-2-yl)-1,3-benzoxazol-2-yl]piperidin-1-yl}-2-oxo-1,2-dihydroquinoline-3-carboxamide]
- IC50: 3.4 nM

Compound: Cc1ccc2oc(C3(C)CCN(c4c(C#N)c(=O)n(C)c5cc(NC6CC6)ccc45)CC3)nc2c1 [Example 418, 7-(cyclopropylamino)-1-methyl-4-[4-methyl-4-(5-methyl-1,3-benzoxazol-2-yl)piperidin-1-yl]-2-oxo-1,2-dihydroquinoline-3-carbonitrile]
- IC50: 1.4 nM

Compound: Cc1ccc2oc(C3CCN(c4c(C#N)c(=O)n(C)c5ccc(C#N)cc45)CC3)nc2c1 [Example 403, 1-methyl-4-[4-(5-methyl-1,3-benzoxazol-2-yl)piperidin-1-yl]-2-oxo-1,2-dihydroquinoline-3,6-dicarbonitrile]
- IC50: 2 nM

Compound: Cn1c(=O)c(C#N)c(N2CCC(c3nnc(-c4cccc(Cl)c4)o3)CC2)c2ccccc21 [Example 354, 4-{4-[5-(3-chlorophenyl)-1,3,4-oxadiazol-2-yl]piperidin-1-yl}-1-methyl-2-oxo-1,2-dihydroquinoline-3-carbonitrile]
- IC50: 112 nM

Compound: Cc1ccc2oc(C3CCN(c4c(C#N)c(=O)n(C)c5ccc(Br)cc45)CC3)nc2c1 [Example 396, 6-bromo-1-methyl-4-[4-(5-methyl-1,3-benzoxazol-2-yl)piperidin-1-yl]-2-oxo-1,2-dihydroquinoline-3-carbonitrile]
- IC50: 0.9 nM

Compound: Cc1ccc(C2CCN(c3c(C#N)c(=O)n(C)c4ccccc34)CC2)cn1 [Example 143, 1-methyl-4-[4-(6-methylpyridin-3-yl)piperidin-1-yl]-2-oxo-1,2-dihydroquinoline-3-carbonitrile]
- IC50: 554 nM

Compound: Cc1ccc2oc(C3(C)CCN(c4c(C#N)c(=O)n(C)c5ccc(S(C)(=O)=O)cc45)CC3)nc2c1 [Example 182, 6-(methanesulfonyl)-1-methyl-4-[4-methyl-4-(5-methyl-1,3-benzoxazol-2-yl)piperidin-1-yl]-2-oxo-1,2-dihydroquinoline-3-carbonitrile]
- IC50: 47 nM

Compound: COc1ccc2oc(C3CCN(c4c(C(N)=O)c(=O)n(C)c5ccccc45)CC3)nc2c1 [Example 486, 4-[4-(5-methoxy-1,3-benzoxazol-2-yl)piperidin-1-yl]-1-methyl-2-oxo-1,2-dihydroquinoline-3-carboxamide]
- IC50: 5.6 nM

Compound: Cn1c(=O)c(C#N)c(N2CCC(c3nc4cc(Cl)ccc4s3)CC2)c2ccccc21 [Example 18, 4-[4-(5-chloro-1,3-benzothiazol-2-yl)piperidin-1-yl]-1-methyl-2-oxo-1,2-dihydroquinoline-3-carbonitrile]
- IC50: 3.7 nM

Compound: Cc1ccccc1-c1nnc(C2CCN(c3c(C#N)c(=O)n(C)c4cc(O)c(Br)cc34)CC2)o1 [Example 445, 6-bromo-7-hydroxy-1-methyl-4-{4-[5-(2-methylphenyl)-1,3,4-oxadiazol-2-yl]piperidin-1-yl}-2-oxo-1,2-dihydroquinoline-3-carbonitrile]
- IC50: 44 nM

Compound: Cc1ccc2oc(C3CCN(c4c(C#N)c(=O)n(C)c5cc(C)ccc45)CC3)nc2c1 [Example 221, 1,7-dimethyl-4-[4-(5-methyl-1,3-benzoxazol-2-yl)piperidin-1-yl]-2-oxo-1,2-dihydroquinoline-3-carbonitrile]
- IC50: 1.8 nM

Compound: COc1ccc(C2CCN(c3c(C#N)c(=O)n(C)c4cc(-c5ccccc5)ccc34)CC2)cc1 [Example 92, 4-[4-(4-methoxyphenyl)piperidin-1-yl]-1-methyl-2-oxo-7-phenyl-1,2-dihydroquinoline-3-carbonitrile]
- IC50: 9.8 nM

Compound: Cn1c(=O)c(C(N)=O)c(N2CCC(c3nc4cc(N5CCCC5=O)ccc4o3)CC2)c2ccccc21 [Example 450, 1-methyl-2-oxo-4-{4-[5-(2-oxopyrrolidin-1-yl)-1,3-benzoxazol-2-yl]piperidin-1-yl}-1,2-dihydroquinoline-3-carboxamide]
- IC50: 119 nM

Compound: Cn1c(=O)c(C#N)c(N2CCC(C)(c3nc4ccccc4o3)CC2)c2ccccc21 [Example 1, 4-[4-(1,3-benzoxazol-2-yl)-4-methylpiperidin-1-yl]-1-methyl-2-oxo-1,2-dihydroquinoline-3-carbonitrile]
- IC50: 1.4 nM

Compound: Cn1c(=O)c(C(N)=O)c(N2CCC(c3nc4ccccc4o3)CC2)c2ccc(C(F)(F)F)cc21 [Example 308, 4-[4-(1,3-benzoxazol-2-yl)piperidin-1-yl]-1-methyl-2-oxo-7-(trifluoromethyl)-1,2-dihydroquinoline-3-carboxamide]
- IC50: 6.4 nM

Compound: Cc1ccc2oc(C3CCN(c4c(C(N)=O)c(=O)n(C)c5ccc(S(C)(=O)=O)cc45)CC3)nc2c1 [Example 454, 6-(methanesulfonyl)-1-methyl-4-[4-(5-methyl-1,3-benzoxazol-2-yl)piperidin-1-yl]-2-oxo-1,2-dihydroquinoline-3-carboxamide]
- IC50: 373 nM

Compound: Cn1c(=O)c(C(N)=O)c(N2CCC(c3nc4ccccc4o3)CC2)c2cccc(Cl)c21 [Example 309, 4-[4-(1,3-benzoxazol-2-yl)piperidin-1-yl]-8-chloro-1-methyl-2-oxo-1,2-dihydroquinoline-3-carboxamide]
- IC50: 101 nM

Compound: CCCc1noc(C2CCN(c3c(C#N)c(=O)n(C)c4ccccc34)CC2)n1 [Example 148, 1-methyl-2-oxo-4-[4-(3-propyl-1,2,4-oxadiazol-5-yl)piperidin-1-yl]-1,2-dihydroquinoline-3-carbonitrile]
- IC50: 369 nM
